Reference: ChEMBL document CHEMBL1201862, “PubChem BioAssay data set” (2004)
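Interpolation was linear, between the two tested concentrations surrounding the appropriate level; five concentrations were tested over 48 hours in 96-well plates. At the GI50, growth is halved.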 Calls of active or inactive are those of the source. No stated cut-off is given here; in the data, active = GI50 up to about 1.1 µM and inactive = higher.

What was measured:
Experiment in all cases: DTP human tumour cell line panel, 48 h
RXF 631 = test system: RXF 631
XF498 = test system: XF498
DLD-1 = test system: DLD-1
DMS-114 = test system: DMS-114
LXFL 529 = test system: LXFL 529
DMS-273 = test system: DMS-273
SNB-78 = test system: SNB-78
HOP-18 = test system: HOP-18
KM-20L2 = test system: KM-20L2

Row | SMILES | GI50 (RXF 631) | GI50 (XF498) | GI50 (DLD-1) | GI50 (DMS-114) | GI50 (LXFL 529) | GI50 (DMS-273) | GI50 (SNB-78) | GI50 (HOP-18) | GI50 (KM-20L2)
1 | COc1ccc([Se][Se]c2ccc(OC)cc2OC)c(OC)c1 | 6.31 µM (inactive) | 1.94 µM (inactive) | 3.3 µM (inactive) | 2.01 µM (inactive) | 2.1 µM (inactive) | 5.12 µM (inactive) | 2.66 µM (inactive) | 1.97 µM (inactive) | 
2 | CC(C)(C)OC(=O)NC1CCCC1=O (stereo not drawn) | > 100 µM (inactive) | > 100 µM (inactive) | > 100 µM (inactive) |  | > 100 µM (inactive) | > 100 µM (inactive) | > 100 µM (inactive) |  | > 100 µM (inactive)
3 | CCN(CCCl)CCCCNc1c2ccccc2nc2ccc(OC)cc12 | 0.553 µM (active) |  | 0.0891 µM (active) | 0.323 µM (active) | 0.0923 µM (active) | 0.0865 µM (active) | 0.527 µM (active) |  | 0.238 µM (active)
4 | NCC1(N2CCOCC2)C2CCCC21CO (stereo not drawn) |  |  | > 100 µM (inactive) | > 100 µM (inactive) | > 100 µM (inactive) | > 100 µM (inactive) | > 100 µM (inactive) | > 100 µM (inactive) | 
5 | COC(=O)/C([Se]c1c(C)cc(C)cc1C)=C(\[Se]c1c(C)cc(C)cc1C)C(=O)OC | > 100 µM (inactive) |  | > 100 µM (inactive) | > 100 µM (inactive) | > 100 µM (inactive) | > 100 µM (inactive) | > 100 µM (inactive) | > 100 µM (inactive) | > 100 µM (inactive)
6 | COC(=O)C(=O)C(C(=O)C(=O)Nc1ccccc1C(N)=O)c1nc2ccc(C(=O)c3ccccc3)cc2nc1O (stereo not drawn) | > 100 µM (inactive) | > 100 µM (inactive) |  | > 100 µM (inactive) | 44.6 µM (inactive) | 62.8 µM (inactive) | 68.7 µM (inactive) | 37.1 µM (inactive) | > 100 µM (inactive)
7 | COc1cccc2c1c1ccc3c(c1n2C)C(=O)C=CC3=O |  | 15.8 µM (inactive) | 16.4 µM (inactive) | 20 µM (inactive) | 12 µM (inactive) | 16 µM (inactive) | 18.7 µM (inactive) | 14.1 µM (inactive) | 63.4 µM (inactive)
8 | COc1cc(C(Cc2ccccc2)NC(C)=O)oc(=O)c1 (stereo not drawn) |  | > 100 µM (inactive) | > 100 µM (inactive) | > 100 µM (inactive) | > 100 µM (inactive) | > 100 µM (inactive) |  |  | > 100 µM (inactive)
9 | COc1cc2c(cc1O)CCN[C@@]21CS[C@H]2c3c(OC(C)=O)c(C)c4c(c3C(COC1=O)N1C2C2NC(Cc3cc(C)c(OC)c(O)c32)[C@@H]1C#N)OCO4 (stereo partly drawn) | < 0.01 µM (active) | < 0.01 µM (active) | < 0.01 µM (active) | < 0.01 µM (active) | < 0.01 µM (active) | < 0.01 µM (active) |  |  | < 0.01 µM (active)
10 | C/N=C(\N)c1ccc(NC(=N)c2ccc(C(=N)Nc3ccc(/C(N)=N/C)cc3)cc2)cc1 | > 100 µM (inactive) |  |  | > 100 µM (inactive) | > 100 µM (inactive) | > 100 µM (inactive) |  |  | 
11 | COC1=C(C)C(=O)C2=C(C1=O)C1C3CC4=C(C(=O)C(OC)=C(C)C4=O)C(CNC(=O)C(C)=O)N3C(C#N)C(C2)N1C (stereo not drawn) | 0.0206 µM (active) |  | 0.00254 µM (active) | 0.00162 µM (active) |  | 0.00432 µM (active) | 0.00617 µM (active) | 0.0553 µM (active) | 0.0149 µM (active)
12 | COC(=O)C(C(=O)C(=O)Nc1ccc(C)cc1C)c1csc(-n2nc(-c3ccccc3)cc2-c2ccccc2)n1 (stereo not drawn) | > 100 µM (inactive) | > 100 µM (inactive) | > 100 µM (inactive) | 23.8 µM (inactive) | > 100 µM (inactive) | > 100 µM (inactive) | > 100 µM (inactive) | 40.4 µM (inactive) | 57.5 µM (inactive)
13 | Nc1ccc(C(=O)CC2(O)C(=O)Nc3c(Cl)cc(Cl)cc32)cc1 (stereo not drawn) | 28.8 µM (inactive) |  | 42.9 µM (inactive) |  | 37.8 µM (inactive) |  |  | 90.6 µM (inactive) | > 100 µM (inactive)
14 | CCCC/C=C/C1Cc2ccccc2CN1S(=O)(=O)c1ccc(C)cc1 (stereo not drawn) | 5.78 µM (inactive) | 17 µM (inactive) | 7.71 µM (inactive) | 3.03 µM (inactive) | 5.42 µM (inactive) | 7.71 µM (inactive) |  | 83 µM (inactive) | 11.6 µM (inactive)
15 | CC(C)N(C(=O)C12C3C4C5C3C1(C(=O)N(C(C)C)C(C)C)C5(C#N)C42)C(C)C (stereo not drawn) | > 100 µM (inactive) | > 100 µM (inactive) | 27.1 µM (inactive) | > 100 µM (inactive) | > 100 µM (inactive) | 45.8 µM (inactive) | > 100 µM (inactive) | > 100 µM (inactive) | > 100 µM (inactive)
16 | O=C1COc2cc3c(cc2N1)SCC(=O)N3 | > 100 µM (inactive) | > 100 µM (inactive) | > 100 µM (inactive) | > 100 µM (inactive) | > 100 µM (inactive) | > 100 µM (inactive) | > 100 µM (inactive) | > 100 µM (inactive) | 
17 | C=CC[C@@]1(C#N)C[C@H](C[C@]2(C#N)C[C@H](CCl)OC(C)(C)O2)OC(C)(C)O1 |  | 81.1 µM (inactive) | > 100 µM (inactive) | 41.2 µM (inactive) |  | > 100 µM (inactive) |  | > 100 µM (inactive) | > 100 µM (inactive)
18 | O=C1C(c2ccc([N+](=O)[O-])cc2)=[N+]([O-])c2ccc([N+](=O)[O-])cc21 | 35.6 µM (inactive) |  | 33.4 µM (inactive) | 30.1 µM (inactive) | 28.4 µM (inactive) | 69.7 µM (inactive) | 79.8 µM (inactive) | 54.8 µM (inactive) | 
19 | C=C1CCC2C(C)(CO)C(O)CCC2(C)C1CC(O)C1=CCOC1=O (stereo not drawn) | 30.5 µM (inactive) |  | 86.3 µM (inactive) | 41.8 µM (inactive) | 27 µM (inactive) | > 100 µM (inactive) |  | 54.7 µM (inactive) | 47.4 µM (inactive)
20 | O=C(CCC(=O)Nc1ccc(Cl)c(Cl)c1)Cc1nc2ccccc2o1 | > 100 µM (inactive) |  |  | > 100 µM (inactive) | > 100 µM (inactive) | > 100 µM (inactive) | > 100 µM (inactive) | > 100 µM (inactive) | > 100 µM (inactive)
21 | CNC1=C(C)C(=O)C(C)=C(C(C)(C)CC(=O)n2cc(F)c(=O)[nH]c2=O)C1=O | 23.4 µM (inactive) | 97.7 µM (inactive) | 12.8 µM (inactive) | 74.6 µM (inactive) | > 89.1 µM (inactive) | 23.1 µM (inactive) | > 100 µM (inactive) | > 100 µM (inactive) | 31.3 µM (inactive)
22 | c1ccc(N2N=NC3C4CC(C5c6ccccc6C45)C32)cc1 (stereo not drawn) | 34.7 µM (inactive) | 19.1 µM (inactive) | 32.5 µM (inactive) | 19.9 µM (inactive) | 44 µM (inactive) | 47.1 µM (inactive) | 43.4 µM (inactive) |  | 32.4 µM (inactive)
23 | C=C(c1ccccc1)C1(O)CCCCC1N (stereo not drawn) |  |  | > 100 µM (inactive) | > 100 µM (inactive) | > 100 µM (inactive) | > 100 µM (inactive) | > 100 µM (inactive) | > 100 µM (inactive) | > 100 µM (inactive)
24 | CCOc1cc2ccc3c4cc(OC)c(OC)cc4cnc3c2cc1OCC |  | > 100 µM (inactive) | > 100 µM (inactive) | > 100 µM (inactive) | > 100 µM (inactive) |  | > 100 µM (inactive) | > 100 µM (inactive) | > 100 µM (inactive)
